Measurements reported in article PMC317294 (BMC Pharmacology, 2003).

Experiments:
[1] = target: T1, human mu opioid receptor (hMOR) (Homo sapiens, UniProt P35372); assay: biochemical; details: read-out: maximal efficacy as percentage of stimulation above basal levels
Ala^348,353 hMOR [2] = target: T2, Ala^348,353 hMOR (Homo sapiens, UniProt P35372, C348A/C353A); assay: biochemical; details: read-out: maximal efficacy as percentage of stimulation above basal levels
Ala^348,353 hMOR [3] = target: T2, Ala^348,353 hMOR; assay type: cell-based
[4] = target: T1, human mu opioid receptor (hMOR); assay type: cell-based
Ala^348,353 hMOR [5] = target: T2, Ala^348,353 hMOR; assay type: binding

T2 sequence (P35372 whole entry C348A/C353A): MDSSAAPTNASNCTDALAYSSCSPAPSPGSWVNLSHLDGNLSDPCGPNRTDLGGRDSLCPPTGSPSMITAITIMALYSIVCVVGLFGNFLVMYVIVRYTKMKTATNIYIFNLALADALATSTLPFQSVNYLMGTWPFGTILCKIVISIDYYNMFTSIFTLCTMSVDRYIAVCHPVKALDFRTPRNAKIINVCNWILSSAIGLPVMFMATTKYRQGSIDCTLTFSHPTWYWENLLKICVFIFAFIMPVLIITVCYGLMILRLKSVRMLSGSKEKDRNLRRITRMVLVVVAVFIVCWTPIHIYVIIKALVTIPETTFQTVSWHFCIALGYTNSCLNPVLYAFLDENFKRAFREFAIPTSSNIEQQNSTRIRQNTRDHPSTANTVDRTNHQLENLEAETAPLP
T1 sequence (P35372 whole entry): as the sequence (P35372 whole entry C348A/C353A) above, with A348C, A353C counted along it

C[C@@H](NC(=O)[C@@H](N)Cc1ccc(O)cc1)C(=O)NCC(=O)N(C)[C@@H](Cc1ccccc1)C(=O)NCCO [DAMGO, [D-Ala^2, N-Me-Phe^4, Gly^5-ol]-enkephalin]
Emax [1]: 366 ± 23% | Emax (Ala^348,353 hMOR [2]): 164 ± 6%

COc1cccc2c1[C@]13CCN(CC4CC4)[C@H](C2)[C@]1(OC)CCC(=O)C3 [Cyprodime]
Ala^348,353 hMOR expression level after ligand treatment (Ala^348,353 hMOR [3]): 245 ± 20% | hMOR expression level after ligand treatment [4]: 103 ± 9%

C[C@@H](NC(=O)[C@@H](N)Cc1ccc(O)cc1)C(=O)N[C@@H](Cc1ccccc1)C(=O)NCC(=O)N[C@@H](Cc1ccc(O)cc1)C(=O)N1CCC[C@H]1C(=O)N[C@@H](CO)C(N)=O [Dermorphin]
increase in binding affinity for Ala^348,353 hMOR compared to hMOR (Ala^348,353 hMOR [5]): approximately 20 fold
